Assay results published in US20110098323A1, “INHIBITORS OF BACTERIAL BIOFILM FORMATION” (MICROBIOTIX, INC., priority 2009, published 2011).
Read-outs that look alike come from different tables or passages of the source. One block for each compound: values may come before it.

What was measured:
Assay in all cases: MBIC/MIC secondary assay
Format in all cases: cell-based
[1] = tested on: Pseudomonas aeruginosa PAO1; settings: for MIC: Pseudomonas aeruginosa, PAO1
Experimental: (§1) Assays for detecting and measuring bacterial biofilm formation are known in the art. An example of a biofilm formation assay useful in detecting and characterizing biofilm inhibitor compounds is described in Example 1, infra. Briefly, bacterial cells are inoculated into growth medium in individual wells of a 96-well assay plate in the presence or absence of a compound (known biofilm inhibitor or test compound). After incubation for a specified time, growth medium and non-biofilm bacterial cells are removed from each of the wells. The bacterial cells in any biofilms that are adhered to the surface of a well are fixed by addition of ethanol. The ethanol is removed, and the fixed biofilm bacteria cells are stained with crystal violet (CV). The intensity of CV staining is directly correlated with bacterial biofilm formation and is measured in the wells by reading the optical density at 600 nm (OD600). The difference in biofilm formation between untreated control and treated cultures provides an indication of relative biofilm inhibition activity (anti-biofilm activity). Use of different concentrations of an inhibitor in multiple and otherwise duplicate cultures permits determination of a compound's Minimal Biofilm Inhibitory Concentration (MBIC), which is defined herein as the lowest concentration of a compound that inhibits biofilm formation by at least 80% (i.e., ≧80%) compared to untreated control cultures. […]
(§2) A secondary assay provided a quantitative measure of both anti-biofilm activity and antibacterial activity in terms of the Minimal Biofilm Inhibitory Concentration (MBIC) and the Minimal Inhibitory Concentration (MIC), respectively. The MBIC and MIC are defined as the lowest compound concentrations that inhibit biofilm formation and bacterial growth, respectively, by at least 80% (i.e., ≧80%). The MBIC/MIC assay is formatted in a manner that is similar to the Microbroth dilution assays described by the Clinical and Laboratory Standards Institute (CLSI; formerly NCCLS) in protocol M7-A7. The growth conditions were optimized for biofilm growth in 96-well assay plates such that the resulting CV staining was within the linear range of detection. Therefore, the MBIC/MIC assay provided a stringent measure of anti-biofilm activity.
(§3) The assay was adapted for several biofilm-forming strains of S. epidermidis, S. aureus, Enterococcus faecalis, and Pseudomonas aeruginosa. Briefly, 96-well assay plates contained a two-fold dilution series for up to 8 compounds (one compound/row) and untreated controls (concentration range of 0.2 μM-100 μM). The assay plates were inoculated with the test bacterial species, e.g., S. epidermidis 18972 (0.5×TSB, 0.25% glucose) or S. aureus ATCC 35556 (0.5×TSB, 1% glucose). The inocula were prepared by diluting an overnight culture 1:100 in fresh media, which corresponds to approximately 5×10^6 cells/well. After inoculation, the assay plates were sealed with foil tape and incubated for 18 h-20 h at 37° C. The assay plates were processed, and the percent inhibition of growth (% INH-Growth) and percent inhibition of biofilm formation (% INH-Biofilm) were calculated as described above. […] Compounds with an MBIC≦10 μM and an MIC/MBIC ratio≧8 for either S. epidermidis or S. aureus were designated as validated hits.
(§4) Compounds were also tested for anti-biofilm activity against a strain of biofilm-forming, vancomycin-resistant Enterococcus faecalis strain (ATCC 51299), the Gram-negative biofilm-forming opportunistic pathogen Pseudomonas aeruginosa PAO1 ([…]), and a Gram-negative, biofilm-forming strain of Escherichia coli (ATCC 25922).

[2] = tested on: Escherichia coli (ATCC 25922); settings: for MIC: Escherichia coli, ATCC25922
Experimental: as §1, §2, §3, §4

[3] = tested on: vancomycin-resistant Enterococcus faecalis strain (ATCC 51299); settings: for MIC: Enterococcus faecalis, ATCC51299
Experimental: as §1, §2, §3, §4

Compound: CCOc1cc(/C=C2\SC(=S)N(c3cccc(C#N)c3)C2=O)ccc1O [Compound 34, 3-(3-cyanophenyl)-5-(3-ethoxy-4-hydroxybenzylidene)-2-thioxothiazolidin-4-one]
MBIC ([1]; P. aeruginosa strain PA01): ≧100 μM
MIC [1]: ≥ 100 µM
MBIC ([2]; E. coli strain 25922): ≧100 μM
MIC [2]: ≥ 100 µM
MBIC ([3]; E. faecalis strain 51299): 12.5 µM
MIC [3]: ≥ 100 µM

MIC ([1]; P. aeruginosa strain PA01, read-out: MIC): ≥ 100 µM
MIC ([2]; E. coli strain 25922, read-out: MIC): ≥ 100 µM
MIC ([3]; E. faecalis strain 51299, read-out: MIC): ≥ 100 µM
Compound: C=CCOc1cc(/C=C2\SC(=S)N(c3ccc(F)cc3)C2=O)ccc1O [Compound 29, 3-(4-fluorophenyl)-5-(3-allyloxy-4-hydroxybenzylidene)-2-thioxothiazolidin-4-one]
MBIC ([1]; P. aeruginosa strain PA01): ≧100 μM
MBIC ([2]; E. coli strain 25922): ≧100 μM
MBIC ([3]; E. faecalis strain 51299): 12.5 µM

Compound: CCOc1cc(/C=C2\SC(=S)N(c3cccc(F)c3)C2=O)ccc1O [Compound 8, 3-(3-fluorophenyl)-5-(3-ethoxy-4-hydroxybenzylidene)-2-thioxothiazolidin-4-one]
MBIC ([1]; P. aeruginosa strain PA01): ≧100 μM
MIC [1]: ≥ 100 µM
MBIC ([2]; E. coli strain 25922): ≧100 μM
MIC [2]: ≥ 100 µM
MBIC ([3]; E. faecalis strain 51299): 25 µM
MIC [3]: ≥ 100 µM

Compound: CCOc1cc(/C=C2\SC(=S)N(c3ccc(F)nc3)C2=O)ccc1O [Compound 40, 3-(6-fluoropyridin-3-yl)-5-(3-ethoxy-4-hydroxybenzylidene)-2-thioxothiazolidin-4-one]
MBIC ([1]; P. aeruginosa strain PA01): ≧100 μM
MIC [1]: ≥ 100 µM
MBIC ([2]; E. coli strain 25922): ≧100 μM
MIC [2]: ≥ 100 µM
MBIC ([3]; E. faecalis strain 51299): 6.3 µM
MIC [3]: ≥ 100 µM

Compound: CCOc1cc(/C=C2\SC(=S)N(c3ccc(F)cc3)C2=O)ccc1O [Compound 4, 3-(4-fluorophenyl)-5-(3-ethoxy-4-hydroxybenzylidene)-2-thioxothiazolidin-4-one]
MBIC ([1]; P. aeruginosa strain PA01): ≧100 μM
MIC [1]: ≥ 100 µM
MBIC ([2]; E. coli strain 25922): ≧100 μM
MIC [2]: ≥ 100 µM
MBIC ([3]; E. faecalis strain 51299): 12.5 µM
MIC [3]: ≥ 100 µM

Compound: CCOc1cc(/C=C2\SC(=S)N(c3cccnc3)C2=O)ccc1O [Compound 36, 3-(pyridin-3-yl)-5-(3-ethoxy-4-hydroxybenzylidene)-2-thioxothiazolidin-4-one]
MBIC ([1]; P. aeruginosa strain PA01): ≧100 μM
MIC [1]: ≥ 100 µM
MBIC ([2]; E. coli strain 25922): ≧100 μM
MIC [2]: ≥ 100 µM
MBIC ([3]; E. faecalis strain 51299): 12.5 µM
MIC [3]: ≥ 100 µM
